Reference: patent US20230278972A1, “SUBSTITUTED HALOALKYL SULFONANILIDE HERBICIDES” (FMC Corporation, priority 2020, published 2023)

Assays:
Assay type in all cases: in vivo
[1] = tested on: galium (catchweed bedstraw, Galium aparine); assay: Test A postemergence, galium; details: Postemergence, 0 to 100 scale (0 no effect, 100 complete control)
Summary of the method: (§1)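 Barnyardgrass, wheat and galium were treated postemergence at the one- to two-leaf stage (2 to 10 cm) with chemicals formulated in non-phytotoxic solvent plus surfactant, grown in loam soil–sand pots. Pigweed was sown in the same blend and given a preemergence directed soil spray.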

[2] = tested on: Ryegrass, Italian (Italian ryegrass, Lolium multiflorum); assay: Test A preemergence, Ryegrass, Italian; details: Preemergence; for Ryegrass, Italian plant response rating: 125 g ai/ha, visual injury on 0 to 100 scale (0 no effect, 100 complete control), approximately 10 days; for Plant response rating, Ryegrass, Italian: 0 to 100 scale (0 no effect, 100 complete control)
Summary of the method: (§2)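 Pots: loam soil/sand blend. Pre: directed soil spray at planting. Post: plants 2–10 cm, 1–2 leaf stage. Formulation: non-phytotoxic solvent + surfactant.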

[3] = tested on: Foxtail, Giant (giant foxtail, Setaria faberi); assay: Test A preemergence, Foxtail, Giant; details: Preemergence; for Foxtail, Giant plant response rating: 125 g ai/ha, visual injury on 0 to 100 scale (0 no effect, 100 complete control), approximately 10 days; for Plant response rating, Foxtail, Giant: 0 to 100 scale (0 no effect, 100 complete control)
Summary of the method: as §2

kochia (Bassia scoparia) [4] = assay: Test A postemergence, kochia; details: Postemergence, 0 to 100 scale (0 no effect, 100 complete control)
Summary of the method: as §2

corn (Zea mays) = assay: Test A postemergence, corn; details: Postemergence, 0 to 100 scale (0 no effect, 100 complete control)
Summary of the method: as §2

[5] = tested on: pigweed (Amaranthus retroflexus); assay: Test A postemergence, pigweed; details: Postemergence, 0 to 100 scale (0 no effect, 100 complete control)
Summary of the method: as §2

[6] = tested on: barnyardgrass (Echinochloa crus-galli); assay: Test A preemergence, barnyardgrass; details: Preemergence; for Barnyardgrass plant response rating: 125 g ai/ha, visual injury on 0 to 100 scale (0 no effect, 100 complete control), approximately 10 days; for Plant response rating, Barnyardgrass: 0 to 100 scale (0 no effect, 100 complete control)
Summary of the method: as §2

kochia (Bassia scoparia) [7] = assay: Test A preemergence, kochia; details: Preemergence; for Kochia plant response rating: 125 g ai/ha, visual injury on 0 to 100 scale (0 no effect, 100 complete control), approximately 10 days; for Plant response rating, Kochia: 0 to 100 scale (0 no effect, 100 complete control)
Summary of the method: as §2

[8] = tested on: blackgrass (Alopecurus myosuroides); assay: Test A postemergence, blackgrass; details: Postemergence, 0 to 100 scale (0 no effect, 100 complete control)
Summary of the method: as §2

[9] = tested on: Ryegrass, Italian (Italian ryegrass, Lolium multiflorum); assay: Test A postemergence, Ryegrass, Italian; details: Postemergence, 0 to 100 scale (0 no effect, 100 complete control)
Summary of the method: as §2

[10] = tested on: barnyardgrass (Echinochloa crus-galli); assay: Test A postemergence, barnyardgrass; details: Postemergence, 0 to 100 scale (0 no effect, 100 complete control)
Summary of the method: as §1

[11] = tested on: Foxtail, Giant (giant foxtail, Setaria faberi); assay: Test A postemergence, Foxtail, Giant; details: Postemergence, 0 to 100 scale (0 no effect, 100 complete control)
Summary of the method: as §2

[12] = tested on: pigweed (Amaranthus retroflexus); assay: Test A preemergence, pigweed; details: for Pigweed plant response rating: 125 g ai/ha, visual injury on 0 to 100 scale (0 no effect, 100 complete control), approximately 10 days; for Plant response rating, Pigweed: 0 to 100 scale (0 no effect, 100 complete control)
Summary of the method: as §1

[13] = tested on: ragweed (common ragweed, Ambrosia artemisiifolia); assay: Test A postemergence, ragweed; details: Postemergence, 0 to 100 scale (0 no effect, 100 complete control)
Summary of the method: as §2

[14] = tested on: wheat (Triticum aestivum); assay: Test A postemergence, wheat; details: Postemergence, 0 to 100 scale (0 no effect, 100 complete control)
Summary of the method: as §1

[15] = tested on: ragweed (common ragweed, Ambrosia artemisiifolia); assay: Test A preemergence, ragweed; details: Preemergence; for Ragweed plant response rating: 125 g ai/ha, visual injury on 0 to 100 scale (0 no effect, 100 complete control), approximately 10 days; for Plant response rating, Ragweed: 0 to 100 scale (0 no effect, 100 complete control)
Summary of the method: as §2

[16] = 125 g ai/ha, visual injury approx. 10 days
[17] = 500 g ai/ha, visual injury, approx. 10 days
[18] = 1000 g ai/ha, visual injury, approx. 10 days

| Structure (SMILES) | Plant response rating, Galium [1, 16] | Plant response rating, Galium [1, 17] | Ryegrass, Italian plant response rating [2] | Plant response rating, Ryegrass, Italian ([2]; 500 g ai/ha) | Foxtail, Giant plant response rating [3] | Plant response rating, Foxtail, Giant ([3]; 500 g ai/ha) | Plant response rating, Kochia (kochia (Bassia scoparia) [4]; [16]) | Plant response rating, Kochia (kochia (Bassia scoparia) [4]; [17]) | Plant response rating, Corn (corn (Zea mays); [16]) | Plant response rating, Corn (corn (Zea mays); [17]) | Plant response rating, Pigweed [5, 16] | Plant response rating, Pigweed [5, 17] | Barnyardgrass plant response rating [6] | Plant response rating, Barnyardgrass ([6]; 500 g ai/ha) | Kochia plant response rating (kochia (Bassia scoparia) [7]) | Plant response rating, Kochia (kochia (Bassia scoparia) [7]; 500 g ai/ha) | Plant response rating, Blackgrass [8, 16] | Plant response rating, Blackgrass [8, 17] | Plant response rating, Ryegrass, Italian [9, 16] | Plant response rating, Ryegrass, Italian [9, 17] | other results |
| --- | --- | --- | --- | --- | --- | --- | --- | --- | --- | --- | --- | --- | --- | --- | --- | --- | --- | --- | --- | --- | --- |
| Cc1cc(Cl)c(NS(=O)(=O)C(F)(F)F)cc1C(=O)N1CCC(C#N)CC1 [Compound 17] | 80 | 90 | 80 | 100 | 100 | 100 | 60 | 70 | 10 | 20 | 60 | 70 | 100 | 100 | 70 | 90 | 0 | 30 | 0 | 70 | Plant response rating, Barnyardgrass [10, 16]: 30; Plant response rating, Barnyardgrass [10, 17]: 90; Plant response rating, Foxtail, Giant [11, 16]: 90; Plant response rating, Foxtail, Giant [11, 17]: 90; Pigweed plant response rating [12]: 90; Plant response rating, Pigweed ([12]; 500 g ai/ha): 100; Plant response rating, Ragweed [13, 16]: 80; Plant response rating, Ragweed [13, 17]: 90; Plant response rating, Wheat [14, 16]: 70; Plant response rating, Wheat [14, 17]: 60; Ragweed plant response rating [15]: 80; Plant response rating, Ragweed ([15]; 500 g ai/ha): 80 |
| COC1CCN(C(=O)c2cc(NS(=O)(=O)C(F)(F)F)c(C)cc2C)CC1 [Compound 19] | – | – | – | – | – | – | – | – | – | – | – | – | – | – | – | – | – | – | – | – | Plant response rating, Galium [1, 18]: 40; Plant response rating, Ryegrass, Italian ([2]; 1000 g ai/ha): 90; Plant response rating, Foxtail, Giant ([3]; 1000 g ai/ha): 100; Plant response rating, Kochia (kochia (Bassia scoparia) [4]; [18]): 70; Plant response rating, Corn (corn (Zea mays); [18]): 50; Plant response rating, Pigweed [5, 18]: 80; Plant response rating, Barnyardgrass ([6]; 1000 g ai/ha): 100; Plant response rating, Kochia (kochia (Bassia scoparia) [7]; 1000 g ai/ha): 90; Plant response rating, Blackgrass [8, 18]: 60; Plant response rating, Ryegrass, Italian [9, 18]: 50; Plant response rating, Barnyardgrass [10, 18]: 80; Plant response rating, Foxtail, Giant [11, 18]: 90; Plant response rating, Pigweed ([12]; 1000 g ai/ha): 100; Plant response rating, Ragweed [13, 18]: 80; Plant response rating, Wheat [14, 18]: 50; Plant response rating, Ragweed ([15]; 1000 g ai/ha): 90 |
| Cc1cc(Cl)c(NS(=O)(=O)C(F)(F)F)cc1C(=O)N1CC(C)OC(C)C1 (stereo not drawn) [Compound 20] | 90 | 90 | 50 | 100 | 80 | 100 | 10 | 30 | 10 | 70 | 30 | 80 | 100 | 100 | 40 | 90 | 30 | 30 | 70 | 70 | Plant response rating, Barnyardgrass [10, 16]: 60; Plant response rating, Barnyardgrass [10, 17]: 80; Plant response rating, Foxtail, Giant [11, 16]: 60; Plant response rating, Foxtail, Giant [11, 17]: 90; Pigweed plant response rating [12]: 20; Plant response rating, Pigweed ([12]; 500 g ai/ha): 80; Plant response rating, Ragweed [13, 16]: 80; Plant response rating, Ragweed [13, 17]: 80; Plant response rating, Wheat [14, 16]: 60; Plant response rating, Wheat [14, 17]: 70; Ragweed plant response rating [15]: 90; Plant response rating, Ragweed ([15]; 500 g ai/ha): 100 |
| Cc1cc(Cl)c(NS(=O)(=O)C(F)(F)F)cc1C(=O)N1CCSCC1 [Compound 26] | 70 | 90 | 80 | 100 | 100 | 100 | 0 | 10 | 0 | 20 | 50 | 90 | 70 | 100 | 0 | 50 | 0 | 30 | 0 | 0 | Plant response rating, Barnyardgrass [10, 16]: 20; Plant response rating, Barnyardgrass [10, 17]: 70; Plant response rating, Foxtail, Giant [11, 16]: 10; Plant response rating, Foxtail, Giant [11, 17]: 40; Pigweed plant response rating [12]: 80; Plant response rating, Pigweed ([12]; 500 g ai/ha): 90; Plant response rating, Ragweed [13, 16]: 50; Plant response rating, Ragweed [13, 17]: 100; Plant response rating, Wheat [14, 16]: 40; Plant response rating, Wheat [14, 17]: 60; Ragweed plant response rating [15]: 20; Plant response rating, Ragweed ([15]; 500 g ai/ha): 50 |
| Cc1cc(Cl)c(NS(=O)(=O)C(F)(F)F)cc1-c1cn(C)c(=O)n(C)c1=O [Compound 29] | 90 | 90 | 90 | 100 | 100 | 100 | 30 | 80 | 0 | 10 | 40 | 50 | 40 | 100 | 40 | 90 | 80 | 90 | 70 | 90 | Plant response rating, Barnyardgrass [10, 16]: 50; Plant response rating, Barnyardgrass [10, 17]: 90; Plant response rating, Foxtail, Giant [11, 16]: 90; Plant response rating, Foxtail, Giant [11, 17]: 90; Pigweed plant response rating [12]: 70; Plant response rating, Pigweed ([12]; 500 g ai/ha): 90; Plant response rating, Ragweed [13, 16]: 80; Plant response rating, Ragweed [13, 17]: 90; Plant response rating, Wheat [14, 16]: 70; Plant response rating, Wheat [14, 17]: 70; Ragweed plant response rating [15]: 60; Plant response rating, Ragweed ([15]; 500 g ai/ha): 90 |
